Assay [1] concerns the target T1, Adenosine receptor A3 (Homo sapiens, UniProt P0DMS8).
T1 sequence (P0DMS8 whole entry): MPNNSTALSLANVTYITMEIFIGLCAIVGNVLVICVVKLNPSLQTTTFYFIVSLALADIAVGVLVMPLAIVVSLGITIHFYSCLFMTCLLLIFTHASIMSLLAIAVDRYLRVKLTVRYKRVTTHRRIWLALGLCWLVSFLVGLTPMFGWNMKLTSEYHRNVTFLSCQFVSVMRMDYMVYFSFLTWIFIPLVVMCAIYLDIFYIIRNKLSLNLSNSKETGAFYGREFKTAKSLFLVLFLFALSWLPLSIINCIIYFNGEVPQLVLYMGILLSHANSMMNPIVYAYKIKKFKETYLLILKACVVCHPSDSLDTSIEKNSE

In assay [2] the target is T2, Adenosine receptor A1 (Homo sapiens, UniProt P30542).
T2 sequence (P30542 whole entry): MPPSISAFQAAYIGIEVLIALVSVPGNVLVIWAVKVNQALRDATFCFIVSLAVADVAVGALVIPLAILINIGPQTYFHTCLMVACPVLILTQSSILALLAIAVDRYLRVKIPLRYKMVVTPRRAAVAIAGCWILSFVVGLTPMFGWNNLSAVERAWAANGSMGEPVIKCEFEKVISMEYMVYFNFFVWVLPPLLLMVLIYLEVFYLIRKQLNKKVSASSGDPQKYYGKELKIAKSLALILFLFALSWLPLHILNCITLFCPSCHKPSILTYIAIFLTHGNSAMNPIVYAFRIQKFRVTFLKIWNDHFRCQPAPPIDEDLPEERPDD

The target in assay [3] is Adenosine receptor A2a (Homo sapiens, UniProt P29274).

As usually defined, the Ki is the dissociation constant of the complex between target and ligand, obtained from inhibition or displacement.

Sequence of Adenosine receptor A2a (P29274 whole entry): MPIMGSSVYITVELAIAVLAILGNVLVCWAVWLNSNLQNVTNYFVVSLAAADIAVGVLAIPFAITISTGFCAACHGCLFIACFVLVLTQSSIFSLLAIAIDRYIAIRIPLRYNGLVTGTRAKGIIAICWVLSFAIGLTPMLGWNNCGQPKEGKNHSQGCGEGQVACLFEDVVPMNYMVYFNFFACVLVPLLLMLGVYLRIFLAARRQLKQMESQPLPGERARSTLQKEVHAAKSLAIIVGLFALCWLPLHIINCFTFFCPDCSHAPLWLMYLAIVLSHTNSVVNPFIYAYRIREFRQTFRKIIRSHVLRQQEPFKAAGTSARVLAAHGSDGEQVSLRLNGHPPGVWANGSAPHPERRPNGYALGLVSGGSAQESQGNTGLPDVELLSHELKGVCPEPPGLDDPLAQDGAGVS

As for `CCNC(=O)C1OC(n2cnc3c(N)nc(C#CCCCc4ccccc4)nc32)C(O)C1O` (stereo not given) [5-[6-Amino-2-(5-phenyl-pent-1-ynyl)-purin-9-yl]-3,4-dihydroxy-tetrahydro-furan-2-carboxylic acid ethylamide], the Ki was 27 nM in assay [1] and 180 nM in assay [2].
Consider `CCNC(=O)C1OC(n2cnc3c(N)nc(C#Cc4ccccc4)nc32)C(O)C1O` (stereo not given) [5-(6-Amino-2-phenylethynyl-purin-9-yl)-3,4-dihydroxy-tetrahydro-furan-2-carboxylic acid ethylamide], for which the Ki in assay [1] came to 6.2 nM; in assay [3] it was 620 nM; in assay [2], 560 nM.
Consider `CCNC(=O)C1OC(n2cnc3c(N)nc(C#CCC(C)O)nc32)C(O)C1O` (stereo not given) [5-[6-Amino-2-(4-hydroxy-pent-1-ynyl)-purin-9-yl]-3,4-dihydroxy-tetrahydro-furan-2-carboxylic acid ethylamide], for which the Ki was found to be 4.1 nM in assay [1], 14 nM in assay [3] and 40 nM in assay [2].
With `CCNC(=O)C1OC(n2cnc3c(N)nc(C#CC(O)c4ccccc4)nc32)C(O)C1O` (stereo not given) [R,S-PHPNECA], the results for the inhibition constant Ki in assay [1], in assay [3] and in assay [2] were 0.42 nM, 3.1 nM and 2.7 nM, respectively.
In the case of `CCNC(=O)C1OC(n2cnc3c(N)nc(C#CC(C)O)nc32)C(O)C1O` (stereo not given) [5-[6-Amino-2-(3-hydroxy-but-1-ynyl)-purin-9-yl]-3,4-dihydroxy-tetrahydro-furan-2-carboxylic acid ethylamide], the Ki in assay [1] stood at 1.5 nM; in assay [3], 14 nM; in assay [2], 3.3 nM.
In the case of `CCNC(=O)[C@H]1O[C@@H](n2cnc3c(N)nc(C#C[C@@H](O)c4ccccc4)nc32)[C@H](O)[C@@H]1O` [6R, (R)-PHPNECA], the Ki in assay [1] came out at 5.5 nM; in assay [3] it was 39 nM; in assay [2], 1.9 nM.
On the same counts, the results for `CCNC(=O)C1OC(n2cnc3c(N)nc(C#C[C@H](O)c4ccccc4)nc32)C(O)C1O` (stereo partly drawn) [6S, (S)-PHPNECA] are 0.75 nM, 2 nM and 2.1 nM.
`CCNC(=O)C1OC(n2cnc3c(N)nc(C#Cc4nccs4)nc32)C(O)C1O` (stereo not given) [5-(6-Amino-2-thiazol-2-ylethynyl-purin-9-yl)-3,4-dihydroxy-tetrahydro-furan-2-carboxylic acid ethylamide]: the Ki is 3.7 nM in assay [1] and 12 nM in assay [2].
For `CCNC(=O)C1OC(n2cnc3c(N)nc(C#CC4=CCCCC4)nc32)C(O)C1O` (stereo not given) [5-(6-Amino-2-cyclohex-1-enylethynyl-purin-9-yl)-3,4-dihydroxy-tetrahydro-furan-2-carboxylic acid ethylamide], the Ki was 28 nM in assay [1], 100 nM in assay [3] and 87 nM in assay [2].
On the same counts, the results for `CCNC(=O)C1OC(n2cnc3c(N)nc(C#CC(C)(O)c4ccccc4)nc32)C(O)C1O` (stereo not given) [5-[6-Amino-2-(3-hydroxy-3-phenyl-but-1-ynyl)-purin-9-yl]-3,4-dihydroxy-tetrahydro-furan-2-carboxylic acid ethylamide] are 2.4 nM, 56 nM and 9.4 nM.
The matching figures for `CCNC(=O)C1OC(n2cnc3c(N)nc(C#Cc4ccc(C(N)=O)cc4)nc32)C(O)C1O` (stereo not given) [5-{6-amino-2-[2-(4-carbamoylphenyl)ethynyl]-9H-purin-9-yl}-N-ethyl-3,4-dihydroxyoxolane-2-carboxamide]: 9.3 nM, 470 nM and 200 nM.
On the same counts, the results for `CCNC(=O)C1OC(n2cnc3c(N)nc(C#Cc4ccc(CCC(=O)O)cc4)nc32)C(O)C1O` (stereo not given) [3-{4-[6-Amino-9-(5-ethylcarbamoyl-3,4-dihydroxy-tetrahydro-furan-2-yl)-9H-purin-2-ylethynyl]-phenyl}-propionic acid] are 42 nM, 2200 nM and 1000 nM.
Turning to `CCCCC#Cc1nc(N)c2ncn([C@@H]3O[C@H](C(=O)NCC)[C@H](O)C3O)c2n1` (stereo partly drawn) [(2S,3R,5R)-5-[6-amino-2-(hex-1-yn-1-yl)-9H-purin-9-yl]-N-ethyl-3,4-dihydroxyoxolane-2-carboxamide], the results for the Ki in assay [1] and in assay [3] were 2.4 nM and 6.4 nM, respectively.
Take `CCNC(=O)C1OC(n2cnc3c(N)nc(C#CCOc4ccccc4)nc32)C(O)C1O` (stereo not given) [2-substituted NECA derivatives, 8]: the Ki in assay [1] was determined as 14 nM; in assay [3], 180 nM; in assay [2] it was 8 nM.
On the same counts, the results for `CCNC(=O)C1OC(n2cnc3c(N)nc(C#Cc4ccco4)nc32)C(O)C1O` (stereo not given) [5-{6-amino-2-[2-(furan-2-yl)ethynyl]-9H-purin-9-yl}-N-ethyl-3,4-dihydroxyoxolane-2-carboxamide] are 12 nM, 510 nM and 140 nM.
The matching figures for `CCNC(=O)C1OC(n2cnc3c(N)nc(C#CCCCC#N)nc32)C(O)C1O` (stereo not given) [5-[6-Amino-2-(5-cyano-pent-1-ynyl)-purin-9-yl]-3,4-dihydroxy-tetrahydro-furan-2-carboxylic acid ethylamide]: 4.7 nM, 25 nM and 38 nM.
